Several values for one entry are separate records, joined by “and”; a condition that tells them apart may be missing. Equal values may be shown once. Toxic doses and inconclusive results are not listed. Rule as the data show it: active = T/C of 150% or more; inactive = T/C below 125%.
Test system: L1210 leukemia ip in BDF1 mice, survival T/C
Assay: NCI In Vivo Anticancer Drug Screen. Data for tumor model L1210 Leukemia (intraperitoneal) in B6D2F1 (BDF1) mice
Conditions: endpoint: mean survival time, higher = longer survival
How it was run: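 Antitumor effect is assessed in tumor-bearing animals. Survival in the compound arm is compared with a vehicle-dosed control arm and expressed as their quotient.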

[1] = dose: 100.0 mg/kg/injection, schedule: Q04DX002 (ip), vehicle: saline with Tween-80
[2] = dose: 200.0 mg/kg/injection, schedule: Q04DX002 (ip), vehicle: saline with Tween-80
[3] = dose: 400.0 mg/kg/injection, schedule: Q04DX002 (ip), vehicle: saline with Tween-80
[4] = dose: 12.5 mg/kg/injection, schedule: Q01DX009 (ip), vehicle: saline with Tween-80
[5] = dose: 25.0 mg/kg/injection, schedule: Q01DX009 (ip), vehicle: saline with Tween-80
[6] = dose: 50.0 mg/kg/injection, schedule: Q01DX009 (ip), vehicle: saline with Tween-80
[7] = dose: 100.0 mg/kg/injection, schedule: Q04DX003 (ip), vehicle: saline with Tween-80
[8] = dose: 100.0 mg/kg/injection, schedule: Q01DX009 (ip), vehicle: saline with Tween-80
[9] = dose: 100.0 mg/kg/injection, schedule: Q04DX003 (ip), vehicle: Klucel (hydroxypropylcellulose) (HPC)
[10] = dose: 200.0 mg/kg/injection, schedule: Q01DX009 (ip), vehicle: saline with Tween-80
[11] = dose: 200.0 mg/kg/injection, schedule: Q04DX003 (ip), vehicle: Klucel (hydroxypropylcellulose) (HPC)
[12] = dose: 400.0 mg/kg/injection, schedule: Q01DX009 (ip), vehicle: saline with Tween-80
[13] = dose: 400.0 mg/kg/injection, schedule: Q04DX003 (ip), vehicle: Klucel (hydroxypropylcellulose) (HPC)
[14] = dose: 100.0 mg/kg/injection, schedule: Q01DX001 (ip), vehicle: saline with Tween-80
[15] = dose: 200.0 mg/kg/injection, schedule: Q01DX001 (ip), vehicle: saline with Tween-80
[16] = dose: 400.0 mg/kg/injection, schedule: Q01DX001 (ip), vehicle: saline with Tween-80
[17] = dose: 100.0 mg/kg/injection, schedule: Q01DX009 (ip), vehicle: Klucel (hydroxypropylcellulose) (HPC)
[18] = dose: 200.0 mg/kg/injection, schedule: Q01DX009 (ip), vehicle: Klucel (hydroxypropylcellulose) (HPC)
[19] = dose: 400.0 mg/kg/injection, schedule: Q01DX009 (ip), vehicle: Klucel (hydroxypropylcellulose) (HPC)
[20] = dose: 100.0 mg/kg/injection, schedule: Q04DX003 (ip), vehicle: saline
[21] = dose: 200.0 mg/kg/injection, schedule: Q04DX003 (ip), vehicle: saline
[22] = dose: 400.0 mg/kg/injection, schedule: Q04DX003 (ip), vehicle: saline
[23] = dose: 100.0 mg/kg/injection, schedule: Q04DX002 (ip), vehicle: Klucel (hydroxypropylcellulose) (HPC)
[24] = dose: 200.0 mg/kg/injection, schedule: Q04DX002 (ip), vehicle: Klucel (hydroxypropylcellulose) (HPC)
[25] = dose: 400.0 mg/kg/injection, schedule: Q04DX002 (ip), vehicle: Klucel (hydroxypropylcellulose) (HPC)
[26] = dose: 200.0 mg/kg/injection, schedule: Q04DX003 (ip), vehicle: saline with Tween-80
[27] = dose: 400.0 mg/kg/injection, schedule: Q04DX003 (ip), vehicle: saline with Tween-80

Measured: T/C

O=C(O)c1cccnc1C(=O)Nc1cccc2ccccc12
inactive: [1] 105 % of control | [2] 105 % of control | [3] 105 % of control

COC(=O)C(CCCCN=Cc1ccccc1O)N=Cc1ccccc1O.[Cu] (stereo not drawn)
inactive: dose: 6.25 mg/kg/injection, schedule: Q01DX009 (ip), vehicle: saline with Tween-80 96 % of control | [4] 93 % of control | [5] 96 % of control and 98 % of control | [6] 103 % of control | [7] 96 % of control

CC(=O)OC(OC(C)=O)c1ccc([N+](=O)[O-])c([N+](=O)[O-])c1
inactive: dose: 12.5 mg/kg/injection, schedule: Q01DX001 (ip), vehicle: carboxymethylcellulose (CMC) 97 % of control | dose: 25.0 mg/kg/injection, schedule: Q01DX001 (ip), vehicle: carboxymethylcellulose (CMC) 97 % of control | dose: 50.0 mg/kg/injection, schedule: Q01DX001 (ip), vehicle: carboxymethylcellulose (CMC) 94 % of control

CCCCCCC(O)CCCC (stereo not drawn)
inactive: [8] 117 % of control | [9] 91 % of control | [10] 110 % of control | [11] 88 % of control | [12] 122 % of control | [13] 88 % of control

O=Cc1[nH]c(=S)[nH]c(=O)c1Cc1ccc(Br)cc1
inactive: [14] 106 % of control | [8] 94 % of control | [15] 98 % of control | [10] 91 % of control | [16] 98 % of control | [12] 98 % of control

COc1cc(OC)c(NC(=O)c2cc3ccccc3cc2O)cc1Cl
inactive: [17] 96 % of control | [9] 101 % of control | [18] 101 % of control | [11] 101 % of control | [19] 96 % of control | [13] 111 % of control

C[N+]1(C)N=C([O-])C=C1c1ccccc1
inactive: [20] 111 % of control | [21] 104 % of control | [22] 102 % of control

CCOc1nsc(OCC)n1
inactive: dose: 75.0 mg/kg/injection, schedule: Q01DX009 (ip), vehicle: other 103 % of control | [20] 98 % of control | dose: 150.0 mg/kg/injection, schedule: Q01DX009 (ip), vehicle: other 107 % of control | [21] 101 % of control | dose: 300.0 mg/kg/injection, schedule: Q01DX009 (ip), vehicle: other 93 % of control | [22] 103 % of control

N#C/C(=C/c1ccccc1Cl)C(N)=O
inactive: [8] 100 % of control | [23] 100 % of control | [10] 94 % of control | [24] 93 % of control | [12] 94 % of control | [25] 107 % of control

N#CC(c1ccccc1)N1CCOCC1 (stereo not drawn)
inactive: [9] 91 % of control | [11] 96 % of control | [13] 95 % of control

O=C(COc1ccc(Cl)c(Cl)c1)Nc1ccc[n+](CC(=O)Nc2ccc(S(=O)(=O)F)cc2)c1
inactive: [8] 87 % of control | [10] 87 % of control | [12] 89 % of control

Cc1ccc(C)c(NC(=O)NCc2ccco2)c1
inactive: [8] 97 % of control | [10] 89 % of control

O=C(O)c1cc2ccccc2cc1O
inactive: dose: 100.0 mg/kg/injection, schedule: Q04DX002 (ip), vehicle: gum acacia 102 % of control | dose: 200.0 mg/kg/injection, schedule: Q04DX002 (ip), vehicle: gum acacia 94 % of control

O=C1c2ccccc2C(=O)N1CNc1cccc(NCN2C(=O)c3ccccc3C2=O)n1
inactive: [8] 92 % of control | [10] 91 % of control | [12] 93 % of control

CCOC(=O)C1NC(=O)C(C(=O)OCC)C1C(C)C (stereo not drawn)
inactive: dose: 75.0 mg/kg/injection, schedule: Q04DX003 (ip), vehicle: Klucel (hydroxypropylcellulose) (HPC) 102 % of control | dose: 100.0 mg/kg/injection, schedule: Q01DX001 (ip), vehicle: Klucel (hydroxypropylcellulose) (HPC) 103 % of control | dose: 150.0 mg/kg/injection, schedule: Q04DX003 (ip), vehicle: Klucel (hydroxypropylcellulose) (HPC) 98 % of control | dose: 200.0 mg/kg/injection, schedule: Q01DX001 (ip), vehicle: Klucel (hydroxypropylcellulose) (HPC) 103 % of control | dose: 300.0 mg/kg/injection, schedule: Q04DX003 (ip), vehicle: Klucel (hydroxypropylcellulose) (HPC) 100 % of control | dose: 400.0 mg/kg/injection, schedule: Q01DX001 (ip), vehicle: Klucel (hydroxypropylcellulose) (HPC) 109 % of control

Cc1ccc(NC(=O)c2cccc(C(=O)Nc3ccc(C)c(Cl)c3)c2)cc1Cl
inactive: [17] 91 % of control | [9] 95 % of control | [18] 97 % of control | [11] 96 % of control | [19] 92 % of control | [13] 106 % of control

NC1CC[N-]CC1.NC1CC[N-]CC1.[Cl][Pt+2][Cl]
inactive: dose: 50.0 mg/kg/injection, schedule: Q04DX003 (ip), vehicle: saline 108 % of control | dose: 100.0 mg/kg/injection, schedule: Q01DX009 (ip), vehicle: saline 94 % of control | [20] 102 % of control | dose: 200.0 mg/kg/injection, schedule: Q01DX009 (ip), vehicle: saline 100 % of control | [21] 108 % of control | [22] 100 % of control

CC(C)(C)c1cc(N)cc(C(C)(C)C)c1O
inactive: [2] 87 % of control | [3] 90 % of control

c1ccc2oc(CCCCc3nc4ccccc4o3)nc2c1
inactive: [17] 91 % of control | [9] 102 % of control | [18] 102 % of control | [11] 104 % of control | [19] 92 % of control | [13] 102 % of control

Cc1cc([N+](=O)[O-])ccc1N=O
inactive: [4] 101 % of control | [5] 102 % of control | [6] 98 % of control | [7] 98 % of control | [26] 100 % of control | [27] 100 % of control

C[CH2][Ge]([CH2]C)([CH2]C)[CH2]CO
inactive: dose: 5.0 mg/kg/injection, schedule: Q04DX002 (ip), vehicle: saline with Tween-80 103 % of control | dose: 10.0 mg/kg/injection, schedule: Q04DX002 (ip), vehicle: saline with Tween-80 106 % of control | dose: 20.0 mg/kg/injection, schedule: Q04DX002 (ip), vehicle: saline with Tween-80 103 % of control

NC(=S)N/N=C/c1cc2c3c(c1)CCCN3CCC2
inactive: [7] 109 % of control | [26] 103 % of control | [27] 103 % of control

COc1cccc(CBr)c1-c1c(CBr)cccc1OC
inactive: [23] 94 % of control | [24] 110 % of control | [25] 94 % of control

O=c1[nH]nc(SC2CCCCC2)c(=O)[nH]1
inactive: dose: 100.0 mg/kg/injection, schedule: Q01DX001 (ip), vehicle: saline 108 % of control | dose: 200.0 mg/kg/injection, schedule: Q01DX001 (ip), vehicle: saline 108 % of control | dose: 400.0 mg/kg/injection, schedule: Q01DX001 (ip), vehicle: saline 106 % of control

CCOC(=O)C(=CN1CCCCC1)C(=O)OCC
inactive: [20] 98 % of control | [21] 101 % of control | [22] 95 % of control

CC(C)=NOCCCCON=C(C)C
inactive: [14] 101 % of control | [1] 95 % of control and 103 % of control | [15] 100 % of control | [2] 109 % of control and 88 % of control | [16] 92 % of control | [3] 103 % of control and 88 % of control

CCCOC(CCC(=O)NC(C)(C)C)CC(=O)NC(C)(C)C (stereo not drawn)
inactive: [17] 95 % of control | [9] 103 % of control | [18] 90 % of control | [11] 97 % of control | [19] 90 % of control | [13] 93 % of control

O=C(NC1CCCCC1)c1ccc(Cl)cc1Cl
inactive: [6] 100 % of control | [8] 100 % of control | [10] 96 % of control

N#CC(C#N)=Cc1ccc2ccc3cccc4ccc1c2c34
inactive: [9] 91 % of control | [11] 93 % of control | [13] 93 % of control

COc1nc(-c2ccccc2)cn[n+]1C
inactive: dose: 33.0 mg/kg/injection, schedule: Q01DX001 (ip), vehicle: saline with Tween-80 103 % of control | dose: 50.0 mg/kg/injection, schedule: Q01DX001 (ip), vehicle: saline with Tween-80 107 % of control | dose: 75.0 mg/kg/injection, schedule: Q01DX001 (ip), vehicle: saline with Tween-80 113 % of control

CCCCCCC(C)CCCC (stereo not drawn)
inactive: [14] 94 % of control | [15] 91 % of control | [16] 86 % of control

From PubChem BioAssay AID248 (DTP/NCI, 2004)
